Measured values published in publication PMC12373846, “Hemoglobin as a pseudoperoxidase and drug target for oxidative stress-related diseases” (Signal Transduction and Targeted Therapy, 2025).
Counter-ions that a name gives are not always drawn. Like-named read-outs stand apart in the source and are kept apart here.

How the values were obtained:
[1] = biological target: T1, HRP (Armoracia rusticana, UniProt P00433); assay: H2O2 assay with HRP (HRP-EC50); type: biochemical, horseradish
T1 sequence (P00433 31-353): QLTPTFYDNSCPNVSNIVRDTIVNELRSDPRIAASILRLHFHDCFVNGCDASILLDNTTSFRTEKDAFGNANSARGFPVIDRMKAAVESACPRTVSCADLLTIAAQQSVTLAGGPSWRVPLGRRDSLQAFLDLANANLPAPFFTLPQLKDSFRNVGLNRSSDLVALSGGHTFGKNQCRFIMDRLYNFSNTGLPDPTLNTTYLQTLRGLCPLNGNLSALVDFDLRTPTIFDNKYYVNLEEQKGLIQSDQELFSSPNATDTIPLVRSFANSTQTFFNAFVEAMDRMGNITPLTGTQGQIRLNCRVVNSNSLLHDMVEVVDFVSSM
Experimental: (§1) Hb (Sigma‒Aldrich, H7379), H2O2 (Sigma‒Aldrich, H1009), and Amplex Red reagents (Invitrogen, A12222) were obtained for the study. A 4 μM H2O2 solution was prepared in 50 mM sodium phosphate buffer (pH 7.2). Then, 49 μl of this mixture was mixed with 1 μl of the test compound in DMSO or distilled water. The mixture was combined with an assay mixture of Amplex Red reagent (20 mM stock to 0.1 mM) and HRP (200 U/ml stock to 0.2 U/ml) and added to the wells at 50 μl/well. After a 60-min incubation at 37 °C, resorufin production was quantified via a microplate fluorescence reader (SpectraMax iD5, Molecular Devices) at ex/em = 535/580 nm. The H2O2-decomposing activity was estimated via the following equation: (sample fluorescence-blank fluorescence)/(control absorbance-blank fluorescence) × 100. For the ROS-Glo assay, the H2O2 substrate solution and ROS-Glo detection solution were prepared according to the manufacturer’s instructions. 10 μM H2O2 and drugs were prepared as in the Amplex Red assay, with HRP, Hb, CAT, or GPx added as needed. The mixture was added to the wells at 100 μl/well and incubated for 60 min at 37 °C. H2O2 substrate solution was added, and the mixture was incubated at room temperature for 30 min. After the H2O2 substrate solution was added and incubated at room temperature for 30 min, the ROS-Glo detection solution was added, and the mixture was incubated for 15 min. Luminescence was measured via iD5 microplate readers. The H2O2-decomposing activity was estimated via the following equation: (sample luminescence-blank luminescence)/(control luminescence-blank luminescence) × 100. The U/ml was calculated on the basis of the amount of H2O2 reduced by Hb during the reaction, using μg/ml and U/mg.

[2] = biological target: T2, Hb (Homo sapiens, UniProt P68871); assay: ROS-Glo H2O2 assay with Hb; type: biochemical
T2 construct: purchased Sigma-Aldrich H7379
Experimental: as §1, with “The H2O2-decomposing activity was estimated via the following equation: (sample fluorescence-blank fluorescence)/(control absorbance-blank fluorescence) × 100.” left out, “The H2O2-decomposing activity was estimated via the following equation: (sample luminescence-blank luminescence)/(control luminescence-blank luminescence) × 100.” left out
To evaluate the extent of peroxidase function facilitation by HTPEB (1 μM) and KDS12025 (1 μM) in HRP (0.2 U/ml) and Hb (10 μg/ml), we used the ROS-Glo assay over 30 and 60 min. The fold change was calculated by dividing the delta values during the 30-min reaction for the vehicle over drug conditions.
To assess enzyme activity, the amount of H2O2 consumed over a specific time was quantified alongside a standard curve. For the peroxidase function of Hb, Hb was administered at doses ranging from 0.01 to 112 U/ml and preincubated with H2O2 and either DMSO, HTPEB (1 μM), or KDS12025 (1 μM) at 37 °C for 30 min. The remaining H2O2 was measured via the ROS-Glo assay and normalized against conditions without Hb. The dose‒response curve, EC50, and EC20 for H2O2 decomposition were calculated and determined by fitting the data with GraphPad Prism software. The fitting method had no special handling of outliers, and least squares regression with confidence intervals of the parameters was 95%.

[3] = tested on: primary cultured hippocampal astrocytes; assay: oROS-G intracellular H2O2 imaging; type: cell-based, mouse; details: Fig. 3j
Experimental: Primary hippocampal astrocytes were obtained from postnatal day 0‒2 (P0‒2) C57BL/6 mice as previously described.[73] The hippocampal tissue was dissected free of meninges, minced, and dissociated into a single-cell suspension by trituration. The cells were grown in Dulbecco’s modified Eagle’s medium supplemented with D-glucose (4500 mg/L), L-glutamine, sodium pyruvate (110 mg/L), 10% heat-inactivated horse serum, 10% heat-inactivated fetal bovine serum, and 1000 U/ml penicillin‒streptomycin. The cells were maintained at 37 °C in a humidified atmosphere containing 5% CO2.
H2O2 specific, highly sensitive, and fast on-and-off kinetics, a genetically encoded oROS-G plasmid kindly provided by Dr. Andre Berndt. oROS-G was cloned under the GFAP104 promoter and delivered into primary cultured hippocampal astrocytes via the NeoN^TM transfection system (Invitrogen). The cells were treated with various concentrations of Aβ (1 to 10 μM) or 6-OHDA (Tocris, 2547; 10 to 50 μM) to induce aberrant H2O2. For subsequent experiments, 5 μM Aβ and 30 μM 6-OHDA were selected on the basis of initial dose‒response studies. KDS12025 (10 μM) and sodium pyruvate (1 mM) were applied as indicated in each experiment. For live-cell imaging, astrocytes were maintained in a humidified chamber at 37 °C with 5% […] during imaging to preserve physiological conditions. Changes in the fluorescence of oROS-G were recorded via an A1 Nikon confocal microscope equipped with a temperature- and humidity-controlled stage. Images were captured every 20 min for up to 40 h (20for the 6-OHDA experiments) via the NIS-Elements software (Nikon, Japan) for time-lapse imaging. The excitation and emission wavelengths for oROS-G fluorescence were set to 485 nm and 538 nm, respectively. Endpoint fluorescence measurements were also collected for KDS12025 dose-dependent experiments. To analyze the fluorescence intensity, individual regions of interest (ROIs) were manually selected for each astrocyte via NIS-Elements software (Nikon, Japan). The fluorescence intensity changes were normalized to the baseline values (ΔF/F0) to quantify the H2O2 dynamics. To determine the EC50 of KDS12025, endpoint fluorescence intensity data from oROS-G experiments were normalized to those of the Aβ+vehicle control group. The normalized data were analyzed via GraphPad Prism software to fit a four-parameter logistic curve, yielding the EC50 value for the H2O2-decomposing activity of KDS12025.

[4] = PAMPA BBB permeability; type: in vitro ADME; details: for BCS code: CNS +/- classification: 50 μM, 4 h; for Papp at 4 h, 50 μM: PAMPA, pH 7.4, 50 μM
Experimental: A parallel artificial membrane permeability assay (PAMPA)^70 was performed to validate the blood-brain barrier permeability of KDS12025. The procedure began by preparing a donor solution of the compound in a pH 7.4 donor buffer. This solution was added to the wells of a deep well plate, followed by the addition of a high-sensitivity UV plate filled with donor buffer to serve as the blank sample. An initial sample for the UV plate was taken to establish a baseline reading. The PAMPA sandwich was then assembled by adding the donor plate mixture to the donor plate well, followed by placing a BBB-lipid coated membrane on top and an acceptor plate filled with acceptor buffer. This setup was incubated at 25 °C for a specific duration to allow diffusion. Post-incubation, a sample from the acceptor plate was taken, and the UV absorbance was measured to determine the permeated amount of the test compound. The permeability was then calculated using the PAMPA explorer program, considering the initial donor concentration and the acceptor's concentration after incubation.

[5] = Tables S2, S3, read-out: HRP-EC50
[6] = Tables S2, S3, read-out: HB-EC50
[7] = read-out: BCS code: permeability classification

T2 sequence (P68871 2-147 limits assumed): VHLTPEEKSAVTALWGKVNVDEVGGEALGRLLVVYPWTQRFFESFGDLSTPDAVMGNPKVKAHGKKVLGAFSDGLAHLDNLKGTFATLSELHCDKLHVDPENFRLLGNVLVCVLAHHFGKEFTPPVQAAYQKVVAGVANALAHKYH
T2 sequence (P69905 2-142 partner limits assumed): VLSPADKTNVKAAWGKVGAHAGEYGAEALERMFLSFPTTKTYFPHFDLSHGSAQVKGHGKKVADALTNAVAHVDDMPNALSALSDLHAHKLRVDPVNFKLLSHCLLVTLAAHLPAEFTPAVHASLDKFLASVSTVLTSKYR

Structure (SMILES)	EC50 [1, 5] [µM]	EC50 [2, 6] [nM]	further results
CNc1ccc(NCCc2ccccc2)cc1 [8f, N^1-methyl-N^4-phenethylbenzene-1,4-diamine hydrochloride salt]	0.897	78.1	–
O=C(O)c1ccccc1O [Salicylic Acid, reference compound]	> 10	> 10000	–
COc1ccc(NCCc2ccc(C(F)(F)F)cc2)cc1 [7d, 4-methoxy-N-(4-(trifluoromethyl)phenethyl)aniline]	13.3	23400	–
Nc1ccc(O)c(C(=O)O)c1 [Mesalazine, reference compound]	3.6	213	–
CNc1ccc(NCCc2cccc(OC)c2)cc1 [8d, N^1-(3-methoxyphenethyl)-N^4-methylbenzene-1,4-diamine hydrochloride salt]	0.516	85.5	–
O=C(O)c1ccc(NCCc2ccc(C(F)(F)F)cc2)cc1 [7f, 4-((4-(trifluoromethyl)phenethyl)amino)benzoic acid]	22.1	> 10000	–
Cc1ccc(O)c(C(=O)O)c1 [p-Cresotic acid, reference compound]	> 10	> 10000	–
CNc1ccc(NCCc2cccc(C(F)(F)F)c2)cc1 [8g, N^1-methyl-N^4-(3-(trifluoromethyl)phenethyl)benzene-1,4-diamine hydrochloride salt]	0.378	88.4	–
CNc1ccc(NCCc2ccccc2C(F)(F)F)cc1 [8h, N^1-methyl-N^4-(2-(trifluoromethyl)phenethyl)benzene-1,4-diamine hydrochloride salt]	0.5	69.1	–
Oc1ccc(NCCc2ccc(C(F)(F)F)cc2)cc1 [7c, 4-((4-(trifluoromethyl)phenethyl)amino)phenol]	> 10	5090	–
O=C(O)c1cccc(NCCc2ccc(C(F)(F)F)cc2)c1 [7e, 3-((4-(trifluoromethyl)phenethyl)amino)benzoic acid]	> 10	> 10000	–
CNc1ccc(NCCc2ccc(OC)cc2)cc1 [8e, N^1-(4-methoxyphenethyl)-N^4-methylbenzene-1,4-diamine]	0.79	69.5	–
NCCc1cc(O)c(O)cc1O [6-OHDA, 6-hydroxydopamine, reference compound]	–	–	oROS-G H2O2 level ([3]; 6-OHDA 10μM): 153.8±24.7; oROS-G H2O2 level ([3]; 6-OHDA 30μM): 211.9±18.2; oROS-G H2O2 level ([3]; 6-OHDA 50μM): 271.2±14.8
CC(=O)[C@H]1CC[C@H]2[C@@H]3CCC4=CC(=O)CC[C@]4(C)[C@H]3CC[C@]12C [Progesterone]	–	–	BCS code: CNS +/- classification [4]: + (> 10); Papp at 4 h, 50 μM ([4]; U.V, read-out: Pe (PAMPA BBB permeability)): 42.2 ×10⁻⁶ cm/s; Papp at 4 h, 50 μM [4, 7]: > 0.4 ×10⁻⁶ cm/s
CNC(=C[N+](=O)[O-])NCCSCc1ccc(CN(C)C)o1 [Ranitidine]	–	–	BCS code: CNS +/- classification [4]: - (< 10); Papp at 4 h, 50 μM [4, 7]: < 0.4 ×10⁻⁶ cm/s
NCCc1ccc(C(F)(F)F)cc1 [2-(4-(Trifluoromethyl)phenyl)ethylamine, reference compound]	–	–	EC50 [1]: > 10 µM; EC50 [2]: > 10000 nM
FC(F)(F)c1ccc(CCNc2ccccc2)cc1 [7b, N-(4-(trifluoromethyl)phenethyl)aniline]	> 10	–	–
